Assay results from US20150105252A1, “SUBSTITUTED PYRAZOLES AS HERBICIDES” (E I DU PONT DE NEMOURS AND COMPANY, priority 2013, published 2015).

Tests used:
pigweed [1] = test: Test A postemergence; format: in vivo, Amaranthus retroflexus
Summary of the method: (§1)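 Greenhouse test in loam soil/sand blend; compounds formulated in non-phytotoxic solvent with surfactant, applied as preemergence directed soil spray or postemergence to plants 2–10 cm tall at one- to two-leaf stage. Injury rated visually versus untreated controls after approximately 10 days on a 0 (no effect) to 100 (complete control) scale.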

pigweed [2] = test: Test A preemergence; format: in vivo, Amaranthus retroflexus; conditions: preemergence; for Pigweed plant response rating (0 to 100 scale): 125 g ai/ha, visual injury approx. 10 days after treatment; for Pigweed plant response rating: 500 g ai/ha, visual injury after approx. 10 days, 0 to 100 scale (0 no effect, 100 complete control)
Summary of the method: as §1

sedge, umbrella = test: Test B flood; format: in vivo, Cyperus difformis; conditions: 250 g ai/ha, visual rating on 0 to 100 scale (0 no effect, 100 complete control), 13 to 15 days
Summary of the method: (§2)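 Two-leaf-stage plants, pots flooded (3 cm above soil) and treated through the water, which stayed at that depth. After 13–15 days in greenhouse conditions, visual assessment versus controls: 0 is no effect, 100 complete control, dash means no result.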

ducksalad = test: Test B flood; format: in vivo, Heteranthera limosa; conditions: 250 g ai/ha, visual rating on 0 to 100 scale (0 no effect, 100 complete control), 13 to 15 days
Summary of the method: as §2

rice = test: Test B flood; format: in vivo, Oryza sativa; conditions: 250 g ai/ha, visual rating on 0 to 100 scale (0 no effect, 100 complete control), 13 to 15 days
Summary of the method: as §2

velvetleaf [3] = test: Test A postemergence; format: in vivo, Abutilon theophrasti
Summary of the method: as §1

barnyardgrass [4] = test: Test A preemergence; format: in vivo, Echinochloa crus-galli; conditions: preemergence
Summary of the method: as §1

corn [5] = test: Test A postemergence; format: in vivo, Zea mays
Summary of the method: as §1

wheat [6] = test: Test A postemergence; format: in vivo, Triticum aestivum
Summary of the method: as §1

crabgrass, large [7] = test: Test A postemergence; format: in vivo, Digitaria sanguinalis
Summary of the method: as §1

barnyardgrass [8] = test: Test A postemergence; format: in vivo, Echinochloa crus-galli
Summary of the method: as §1

morningglory [9] = test: Test A preemergence; format: in vivo, Ipomoea spp.; conditions: preemergence; for Morningglory plant response rating (0 to 100 scale): 125 g ai/ha, visual injury approx. 10 days after treatment; for Morningglory plant response rating: 500 g ai/ha, visual injury after approx. 10 days, 0 to 100 scale (0 no effect, 100 complete control)
Summary of the method: as §1

wheat [10] = test: Test A preemergence; format: in vivo, Triticum aestivum; conditions: preemergence; for Wheat plant response rating (0 to 100 scale): 125 g ai/ha, visual injury approx. 10 days after treatment; for Wheat plant response rating: 500 g ai/ha, visual injury after approx. 10 days, 0 to 100 scale (0 no effect, 100 complete control)
Summary of the method: as §1

corn [11] = test: Test A preemergence; format: in vivo, Zea mays; conditions: preemergence; for Corn plant response rating (0 to 100 scale): 125 g ai/ha, visual injury approx. 10 days after treatment; for Corn plant response rating: 500 g ai/ha, visual injury after approx. 10 days, 0 to 100 scale (0 no effect, 100 complete control)
Summary of the method: as §1

velvetleaf [12] = test: Test A preemergence; format: in vivo, Abutilon theophrasti; conditions: preemergence; for Velvetleaf plant response rating (0 to 100 scale): 125 g ai/ha, visual injury approx. 10 days after treatment; for Velvetleaf plant response rating: 500 g ai/ha, visual injury after approx. 10 days, 0 to 100 scale (0 no effect, 100 complete control)
Summary of the method: as §1

foxtail, giant [13] = test: Test A preemergence; format: in vivo, Setaria faberii; conditions: preemergence; for Foxtail, Giant plant response rating (0 to 100 scale): 125 g ai/ha, visual injury approx. 10 days after treatment; for Foxtail, Giant plant response rating: 500 g ai/ha, visual injury after approx. 10 days, 0 to 100 scale (0 no effect, 100 complete control)
Summary of the method: as §1

morningglory [14] = test: Test A postemergence; format: in vivo, Ipomoea spp.
Summary of the method: as §1

crabgrass, large [15] = test: Test A preemergence; format: in vivo, Digitaria sanguinalis; conditions: preemergence; for Crabgrass, Large plant response rating (0 to 100 scale): 125 g ai/ha, visual injury approx. 10 days after treatment; for Crabgrass, Large plant response rating: 500 g ai/ha, visual injury after approx. 10 days, 0 to 100 scale (0 no effect, 100 complete control)
Summary of the method: as §1

barnyardgrass [16] = test: Test B flood; format: in vivo, Echinochloa crus-galli; conditions: 250 g ai/ha, visual rating on 0 to 100 scale (0 no effect, 100 complete control), 13 to 15 days
Summary of the method: as §2

foxtail, giant [17] = test: Test A postemergence; format: in vivo, Setaria faberii
Summary of the method: as §1

[18] = Postemergence, 500 g ai/ha, 0 to 100 scale (0 no effect, 100 complete control)
[19] = postemergence, 125 g ai/ha, about 10 days, visual rating on 0 to 100 scale (0 no effect, 100 complete control)
[20] = 125 g ai/ha, visual injury, 0 to 100 scale, approx. 10 days
[21] = 500 g ai/ha, visual injury after approx. 10 days, 0 to 100 scale (0 no effect, 100 complete control)

| SMILES | Pigweed plant response rating (pigweed [1]; [18]) | Pigweed plant response rating (pigweed [1]; [19]) | Pigweed plant response rating (0 to 100 scale) (pigweed [2]) | Pigweed plant response rating (pigweed [2]) | Plant response rating, Sedge, Umbrella (sedge, umbrella) | Plant response rating, Ducksalad (ducksalad) | Plant response rating, Rice (rice) | Velvetleaf plant response rating (velvetleaf [3]; [18]) | Velvetleaf plant response rating (velvetleaf [3]; [19]) | Barnyardgrass plant response rating (barnyardgrass [4]; [20]) | Barnyardgrass plant response rating (barnyardgrass [4]; [21]) | Corn plant response rating (corn [5]; [18]) | Corn plant response rating (corn [5]; [19]) | Wheat plant response rating (wheat [6]; [18]) | Wheat plant response rating (wheat [6]; [19]) | Crabgrass, Large plant response rating (crabgrass, large [7]; [18]) | Crabgrass, Large plant response rating (crabgrass, large [7]; [19]) | Barnyardgrass plant response rating (barnyardgrass [8]; [18]) | Barnyardgrass plant response rating (barnyardgrass [8]; [19]) | Morningglory plant response rating (0 to 100 scale) (morningglory [9]) | other results |
| --- | --- | --- | --- | --- | --- | --- | --- | --- | --- | --- | --- | --- | --- | --- | --- | --- | --- | --- | --- | --- | --- |
| CCCNC(=O)c1cc(Br)n(Cc2cccc(C(F)(F)F)c2)n1 [Compound 159] | 60 | 50 | 10 | 60 | 0 | 0 | 0 | 70 | 60 | 0 | 20 | 20 | 10 | 20 | 0 | 30 | 20 | 30 | 0 | 0 | Morningglory plant response rating (morningglory [9]): 0; Wheat plant response rating (0 to 100 scale) (wheat [10]): 0; Wheat plant response rating (wheat [10]): 0; Corn plant response rating (0 to 100 scale) (corn [11]): 0; Corn plant response rating (corn [11]): 0; Velvetleaf plant response rating (0 to 100 scale) (velvetleaf [12]): 0; Velvetleaf plant response rating (velvetleaf [12]): 0; Foxtail, Giant plant response rating (0 to 100 scale) (foxtail, giant [13]): 0; Foxtail, Giant plant response rating (foxtail, giant [13]): 30; Morningglory plant response rating (morningglory [14]; [18]): 40; Morningglory plant response rating (morningglory [14]; [19]): 30; Crabgrass, Large plant response rating (0 to 100 scale) (crabgrass, large [15]): 10; Crabgrass, Large plant response rating (crabgrass, large [15]): 90; Plant response rating, Barnyardgrass (barnyardgrass [16]): 0; Foxtail, Giant plant response rating (foxtail, giant [17]; [18]): 30; Foxtail, Giant plant response rating (foxtail, giant [17]; [19]): 20 |
| O=C(NCC(F)(F)F)c1cc(Br)n(Cc2cccc(C(F)(F)F)c2)n1 [Compound 161] | 70 | 40 | 10 | 80 | 0 | 0 | 0 | 50 | 30 | 0 | 0 | 10 | 0 | 0 | 0 | 30 | 20 | 10 | 10 | 0 | Morningglory plant response rating (morningglory [9]): 0; Wheat plant response rating (0 to 100 scale) (wheat [10]): 0; Wheat plant response rating (wheat [10]): 0; Corn plant response rating (0 to 100 scale) (corn [11]): 0; Corn plant response rating (corn [11]): 0; Velvetleaf plant response rating (0 to 100 scale) (velvetleaf [12]): 0; Velvetleaf plant response rating (velvetleaf [12]): 0; Foxtail, Giant plant response rating (0 to 100 scale) (foxtail, giant [13]): 0; Foxtail, Giant plant response rating (foxtail, giant [13]): 20; Morningglory plant response rating (morningglory [14]; [18]): 50; Morningglory plant response rating (morningglory [14]; [19]): 30; Crabgrass, Large plant response rating (0 to 100 scale) (crabgrass, large [15]): 10; Crabgrass, Large plant response rating (crabgrass, large [15]): 70; Plant response rating, Barnyardgrass (barnyardgrass [16]): 0; Foxtail, Giant plant response rating (foxtail, giant [17]; [18]): 20; Foxtail, Giant plant response rating (foxtail, giant [17]; [19]): 10 |
| CCCCNC(=O)c1cc(Br)n(Cc2cccc(C(F)(F)F)c2)n1 [Compound 162] | 60 | 40 | 0 | 0 | 0 | 0 | 0 | 40 | 0 | 0 | 0 | 20 | 10 | 0 | 0 | 20 | 10 | 20 | 0 | 0 | Morningglory plant response rating (morningglory [9]): 0; Wheat plant response rating (0 to 100 scale) (wheat [10]): 0; Wheat plant response rating (wheat [10]): 0; Corn plant response rating (0 to 100 scale) (corn [11]): 0; Corn plant response rating (corn [11]): 0; Velvetleaf plant response rating (0 to 100 scale) (velvetleaf [12]): 0; Velvetleaf plant response rating (velvetleaf [12]): 0; Foxtail, Giant plant response rating (0 to 100 scale) (foxtail, giant [13]): 0; Foxtail, Giant plant response rating (foxtail, giant [13]): 60; Morningglory plant response rating (morningglory [14]; [18]): 40; Morningglory plant response rating (morningglory [14]; [19]): 20; Crabgrass, Large plant response rating (0 to 100 scale) (crabgrass, large [15]): 0; Crabgrass, Large plant response rating (crabgrass, large [15]): 30; Plant response rating, Barnyardgrass (barnyardgrass [16]): 0; Foxtail, Giant plant response rating (foxtail, giant [17]; [18]): 20; Foxtail, Giant plant response rating (foxtail, giant [17]; [19]): 10 |
| COCc1cc(C(=O)NC(C)C)nn1Cc1ccnc(C(F)(F)F)c1 [Compound 166] | 100 | 10 | 100 | 100 | 80 | 85 | 10 | 60 | 40 | 50 | 100 | 80 | 30 | 50 | 0 | 80 | 40 | 90 | 30 | 100 | Morningglory plant response rating (morningglory [9]): 100; Wheat plant response rating (0 to 100 scale) (wheat [10]): 10; Wheat plant response rating (wheat [10]): 90; Corn plant response rating (0 to 100 scale) (corn [11]): 10; Corn plant response rating (corn [11]): 90; Velvetleaf plant response rating (0 to 100 scale) (velvetleaf [12]): 60; Velvetleaf plant response rating (velvetleaf [12]): 100; Foxtail, Giant plant response rating (0 to 100 scale) (foxtail, giant [13]): 100; Foxtail, Giant plant response rating (foxtail, giant [13]): 100; Morningglory plant response rating (morningglory [14]; [18]): 100; Morningglory plant response rating (morningglory [14]; [19]): 100; Crabgrass, Large plant response rating (0 to 100 scale) (crabgrass, large [15]): 100; Crabgrass, Large plant response rating (crabgrass, large [15]): 100; Plant response rating, Barnyardgrass (barnyardgrass [16]): 10; Foxtail, Giant plant response rating (foxtail, giant [17]; [18]): 70; Foxtail, Giant plant response rating (foxtail, giant [17]; [19]): 50 |
| COCc1cc(C(=O)NC2CC2)nn1Cc1ccnc(C(F)(F)F)c1 [Compound 167] | 100 | 70 | 100 | 100 | 70 | 80 | 20 | 60 | 30 | 30 | 100 | 70 | 10 | 30 | 0 | 80 | 20 | 80 | 20 | 50 | Morningglory plant response rating (morningglory [9]): 100; Wheat plant response rating (0 to 100 scale) (wheat [10]): 0; Wheat plant response rating (wheat [10]): 50; Corn plant response rating (0 to 100 scale) (corn [11]): 0; Corn plant response rating (corn [11]): 40; Velvetleaf plant response rating (0 to 100 scale) (velvetleaf [12]): 30; Velvetleaf plant response rating (velvetleaf [12]): 100; Foxtail, Giant plant response rating (0 to 100 scale) (foxtail, giant [13]): 90; Foxtail, Giant plant response rating (foxtail, giant [13]): 100; Morningglory plant response rating (morningglory [14]; [18]): 100; Morningglory plant response rating (morningglory [14]; [19]): 80; Crabgrass, Large plant response rating (0 to 100 scale) (crabgrass, large [15]): 80; Crabgrass, Large plant response rating (crabgrass, large [15]): 100; Plant response rating, Barnyardgrass (barnyardgrass [16]): 20; Foxtail, Giant plant response rating (foxtail, giant [17]; [18]): 90; Foxtail, Giant plant response rating (foxtail, giant [17]; [19]): 40 |
